Patent publication US20050250945A1, “Triazine compounds as inhibitors of bacterial type III protein secretion systems” (priority 2004, published 2005)

What was measured:
Type in all cases: cell-based
[1] = tested on: SPI1 type III protein secretion system (SopE‘-’Bla secretion); assay: Primary assay: Type III protein secretion of the chimeric SopE‘-’Bla polypeptide (nitrocefin hydrolysis); conditions: Salmonella enterica, read-out: SopE IC50(uM)
From the text: Primary assay: Type III protein secretion of the chimeric SopE‘-’Bla polypeptide by Salmonella enterica. This procedure is a cell-based assay that measures the type III-dependent secretion by Salmonella enterica of a plasmid-encoded chimeric polypeptide whose synthesis can be regulated, and which is endowed with an enzymatic activity that can be monitored colorimetrically by hydrolysis of a substrate that is unable to penetrate into the bacterial cytoplasm within the time constraints of the reaction. Thus, the colorimetric reaction is not influenced by SopE‘-’Bla polypeptide in the bacterial cytoplasm. Instead, it effectively measures the amount of polypeptide that has been secreted from the S. enterica cytoplasm to the extracellular medium via type III system protein secretion.
The SopE‘-’Bla recombinant polypeptide consists of two functionally distinct domains spliced together. The N-terminus domain is encoded by a polynucleotide region specifying the signal for type III secretion of the SopE polypeptide of S. enterica, an effector of the SPI1 type III protein secretion system. The C-terminus domain of SopE‘-’Bla consists of a 263 amino acid peptide sequence that corresponds to the TEM-1 β-lactamase expressed by plasmid pBR322 but without its N-terminal signal sequence. The TEM-1 β-lactamase part of the SopE‘-’Bla chimeric polypeptide is used as a reporter enzyme. It is capable of hydrolyzing nitrocefin resulting in a product whose accumulation can be monitored by colorimetric detection. The secretion of the SopE‘—’Bla chimeric polypeptide from the cytoplasm to the extracellular medium is dependent on type III protein secretion.
For this procedure, cells grown under conditions known to favor a functional SPI1 secretion system are induced for expression of the SopE‘-’Bla protein and grown either in the presence or in the absence of putative inhibitors for determined time. Nitrocefin is then added to the various cultures and its hydrolysis are used for quantitation. An inhibitor of Type III protein secretion is generally a compound that reduces the signal of the enzymatic reaction by decreasing the amount of SopE‘-’Bla secreted into the extracellular medium.

[2] = tested on: SPI1 type III protein secretion system (SipB secretion); assay: Secondary assay: Type III-dependent protein secretion of the SipB polypeptide (immunoblot); conditions: Salmonella enterica, read-out: SipB IC50(uM)
Procedure: Secondary assay: Type III-dependent protein secretion of the SipB polypeptide by S. enterica. The SipB protein of S. enterica is another effector of the SPI1 type III protein secretion system from S. enterica. In this cell-based procedure, the Type III-dependent secretion of SipB from the bacterial cytoplasm to the extracellular medium was measured through its reactivity with a cognate mouse monoclonal.
Salmonella enterica cells growing either in the presence or in the absence of inhibitors are induced for the production of SipB. Following an established period of growth the cells are sedimented and the amount of SipB present in the supernatant is quantified with a scanning imager following application of immunoblot techniques. Detection may employ an anti-SipB mouse monoclonal antibody (e.g., obtained from Jorge Galan, SUNY at Stony Brook, N.Y.) followed by treatment with commercially available sheep anti-mouse polyclonal antibody conjugated with horseradish peroxidase. Thereafter the membrane is treated with a peroxidase chemiluminescent substrate and exposed to film for an appropriate exposure time. Inhibition may be measured relative to untreated controls.

[3] = tested on: type III protein secretion system of P. aeruginosa PA103 (ExoU secretion); assay: Tertiary assay: Type III-dependent secretion of ExoU by P. aeruginosa PA103 (SDS-PAGE band quantitation); conditions: Pseudomonas aeruginosa; P. aeruginosa PA103, ExoU secreted into extracellular medium
From the text: Tertiary assay: Inhibition of Type III protein secretion of effectors from a Pseudomonas aeruginosa system. Type III protein secretion is used by P. aeruginosa to secrete several essential virulence determinants. One effector of the type III protein secretion system of P. aeruginosa PA103 is the virulence determinants ExoU.
The amount of Type III-dependent secretion of ExoU by P. aeruginosa PA103 can be determined in a cell-based assay by quantification of the 73.9 kDa ExoU protein secreted into the extracellular medium. Such quantitation can be achieved by growing strain PA103 in a deferrated medium in the presence of nitrilotriacetic acid (an inducer of Type III protein secretion in P. aeruginosa) and either in the presence or absence of putative inhibitors. After a prolonged growth period, the cells are sedimented and the supernatants concentrated by ammonium sulfate precipitation. The proteins in the resuspended pellets are separated by electrophoresis on SDS-polyacrylamide gels. After staining gels with Colloidal Blue™, the 73.9 kDa ExoU band is quantitated by scanning through an imager. The effects of inhibitors on the intensity of the ExoU band may be measured relative to that of untreated controls.

Row | Compound | IC50 [1] [µM] | IC50 [2] [µM] | IC50 [3] [µM]
1 | O=C(O)[C@H](CSCc1ccccc1)Nc1nc(Nc2ccc(C(F)(F)F)cc2)nc(-c2ccc3c(c2)OCO3)n1 [Compound 26, (R)-2-[4-Benzo[1,3]dioxol-5-yl-6-(4-trifluoromethylphenylamino)[1,3,5]triazin-2-yl-amino]-3-benzylsulfanylpropionic acid] | 5.8 | 28.1 | 52.1
2 | O=C(O)C(CSCc1ccccc1)Nc1nc(-c2ccc(-c3ccccc3)cc2)nc(N2CCN(c3ccccn3)CC2)n1 (stereo in doubt) [Compound 2, (S)-3-Benzylsulfanyl-2-[4-biphenyl-4-yl-6-(4-pyridin-2-yl-piperazin-1-yl)-[1,3,5]triazin-2-yl-amino]propionic acid] | 6.4 | 36.1 | > 100
3 | O=C(O)[C@H](C[S+]([O-])Cc1ccccc1)Nc1nc(-c2ccc(-c3ccccc3)cc2)nc(N2CCN(c3ccccn3)CC2)n1 (stereo partly drawn) [Compound 8, (R)-2-[4-Biphenyl-4-yl-6-(4-pyridin-2-yl-piperazin-1-yl)[1,3,5]triazin-2-yl-amino]-3-phenylmethanesulfinylpropionic acid] | 14.4 | 34 | > 100
4 | O=C(O)C(Cc1ccc(-c2ccc(C(F)(F)F)cc2)cc1)Nc1nc(-c2ccc(C(F)(F)F)cc2)nc(N2CCN(c3ccccn3)CC2)n1 (stereo not drawn) [Compound 5, 2-[4-(4-Pyridin-2-yl-piperazin-1-yl)-6-(4-trifluoromethylphenyl)[1,3,5]triazin-2-yl-amino]-3-(4′-trifluoromethylbiphenyl-4-yl)propionic acid] | 10.2 | 18.2 | > 100
5 | O=C(O)C(Cc1ccc(Cl)cc1)Nc1nc(-c2ccc(-c3ccccc3)cc2)nc(N2CCN(c3ccccn3)CC2)n1 (stereo not drawn) [Compound 6, 2-[4-Biphenyl-4-yl-6-(4-pyridin-2-yl-piperazin-1-yl)[1,3,5]triazin-2-yl-amino]-3-(4-chlorophenyl)propionic acid] | 5.3 | 28 | > 100
6 | O=C(O)[C@H](C[S+]([O-])Cc1ccccc1)Nc1nc(-c2ccc(C(F)(F)F)cc2)nc(N2CCc3ccccc3C2)n1 (stereo partly drawn) [Compound 3, (R)-2-[4-(3,4-Dihydro-1H-isoquinolin-2-yl)-6-(4-trifluoromethylphenyl)-[1,3,5]triazin-2-yl-amino]-3-phenylmethanesulfinylpropionic acid] | 8.5 | 12.5 | > 100
7 | O=C(O)C(Cc1ccc(-c2ccc(-c3ccccc3)cc2)cc1)Nc1nc(-c2ccc(-c3ccccc3)cc2)nc(N2CCN(c3ccccn3)CC2)n1 (stereo not drawn) [Compound 7, 2-[4-Biphenyl-4-yl-6-(4-pyridin-2-yl-piperazin-1-yl)[1,3,5]triazin-2-yl-amino]-3[1,1′;4′,1″]terphenyl-4-yl-propionic acid] | 12.6 | 17.5 | > 100
8 | O=C(O)[C@H](COCc1ccccc1)Nc1nc(-c2ccc3ccccc3c2)nc(N2CCN(c3ccccn3)CC2)n1 [Compound 1, (S)-3-Benzyloxy-2-[4-naphthalen-2-yl-6-(4-pyridin-2-yl-piperazin-1-yl)-[1,3,5]triazin-2-yl-amino]propionic acid] | 12.4 | 64.8 | > 100
9 | O=C(O)C(Cc1ccc(Cl)cc1)Nc1nc(-c2ccc(C(F)(F)F)cc2)nc(N2CCN(c3ccccn3)CC2)n1 (stereo not drawn) [Compound 4, 3-(4-Chlorophenyl)-2-[4-(4-pyridin-2-yl-piperazin-1-yl)-6-(4-trifluoromethylphenyl)[1,3,5]triazin-2-yl-amino]propionic acid] | 8.5 | 46.4 | > 100
10 | O=C(O)[C@H](C[S+]([O-])Cc1ccccc1)Nc1nc(-c2ccc(C(F)(F)F)cc2)nc(N2CCN(c3ccccn3)CC2)n1 (stereo partly drawn) [Compound 10, (R)-3-Phenylmethanesulfinyl-2-[4-(4-pyridin-2-yl-piperazin-1-yl)-6-(4-trifluoromethylphenyl)[1,3,5]triazin-2-yl-amino]propionic acid] | 50.1 | > 100 | > 100
